Columns and labels:
Format in all cases: cell-based
[1] = system: AGS cell strain; assay: Effect on cell cycle (propidium iodide staining, FACS, sub G1); conditions: for Relative Sub G1: mimic 10 nM, 10 uM 5-FU 24 h after transfection, then 48 hours, relative to scrambled control (=1)
Description: The AGS cells were divided into a 96-well plate such that 2×10^5 AGS cells were allocated to each well, and synthesized miRNAs (10 nM) were transfected and cultured at 37° C. in an incubator. Twenty four hours after the transfection, 10 uM of 5-FU, which is an anti-cancer agent, was treated in one case or not treated in another case, and then the resulting mixture was cultured in an incubator at 37° C. for 48 hours. The cells were detached by using Trypsin-EDTA and washed with PBS two times.
Immediately after the AGS cell strains, which are EBV-negative cell strains, were divided into a 6-well plate such that 2×10^5 AGS cells were allocated to each well, a synthesized miRNA (10 nM) was transfected by using G-fectin and cultured at 37° C. in an incubator. Twenty four hours after the transfection, 10 uM of 5-FU was treated and the resulting mixture was cultured at 37° C. in an incubator for 48 hours. The cells were detached by using Trypsin-EDTA and washed with PBS two times. Afterwards, DNA was stained by propidium iodide staining and the ratio of cells where cell cycle was changed was investigated by FACS.

[2] = system: AGS cell strain; assay: Measurement of apoptosis (Annexin V staining, FACS); conditions: for Relative Apoptotic cell: mimic 10 nM, 10 uM 5-FU 24 h after transfection, then 48 hours, Annexin V, relative to scrambled control (=1), n=9; for effect on cell growth and apoptosis (summary statement): mimics transfected to AGS, tumor cell strain not infected with EBV
Description: Immediately after the AGS cell strain, which is an EBV-negative cell strain, was divided was divided into a 6-well plate such that 2×10^5 AGS cells were allocated to each well, a synthesized miRNA (10 nM) was transfected by using G-fectin and the resulting mixture was cultured at 37 t in an incubatorTwenty four hours after the transfection, 10 uM of 5-FU was treated and the resulting mixture was cultured in an incubator at 37° C. for 48 hours. The cells were detached by using Trypsin-EDTA and washed with PBS two times. Afterwards, the cells were treated with a PE Annexin V Apoptosis Detection Kit and the changed ratio of apoptotic cell was investigated by FACS (FIG. 7).
Immediately after the AGS cell strain, which is an EBV-negative cell strain, is divided into a 6-well plate such that 2×10^5 AGS cells were allocated to each well, a synthesized miRNA (10 nM) was transfected by using G-fectin and the resulting mixture was cultured at 37° C. Twenty four hours after the transfection, 10 uM of 5-FU, which is an anti-cancer agent, was treated and the resulting mixture was cultured in an incubator at 37° C. for 48 hours. The cells were detached by using Trypsin-EDTA and washed with PBS two times. Afterwards, the cells were treated with a PE Annexin V Apoptosis Detection Kit and the ratio of cells where apoptosis took place was measured by FACS.

[3] = system: AGS cell strain; assay: Cell growth test (CCK-8 assay) after transfection of BART miRNA mimics; conditions: for Relative Cell Growth: relative to scrambled control (=1)
Description: An AGS cell strain (Korean Cell Line Bank), which is a stomach cancer cell strain, was cultured in an RPMI1640 (Gibco) culture medium including 10% fetal bovine serum. Mature type synthesized BART miRNAs were transfected to the AGS cell strain by using G-fectin (Genolution) according to a protocol of the manufacture.
To investigate the effect of individual EBV BART miRNAs on the AGS cell strain, the synthesized miRNAs were transfected to the AGS cell strain and, after 72 hours, cells were counted by CCK-8 assay.
Immediately after the AGS cell strain, which is an EBV-negative cell strain, was divided into 96-well plate having 1×10^3 cells/well, a synthesized miRNA (10 nM) was transfected by using G-fectin. After the transfection, according to the experimental objective, the cells were cultured at 37° C. in an incubator, and then CCK-8 was divided among the wells by allocating 10 μl of CCK-8 to each well and the resulting mixture was cultured in an incubator at 37° C. for two hours. Then, the light absorbance was measured with an ELISA measuring instrument.
By the method described in Example 3, miR-BART5-5p mimic or miR-BART15-3p mimic (10 nM) were transfected to the AGS cell strain, and the effect thereof on cell growth was investigated over time.
miR-BART5-5p, miR-BART15-3p, and miR-BART20-3p were transfected to the AGS cell strain (1×10^3 cells/well) in a concentration of 1, 3, 10, and 30 nM, and the effect on cell growth was investigated. Immediately after the AGS cell strain was divided into a 96-well plate such that 1×10^3 AGS cells were allocated to each well, a synthesized miRNA was transfected by using G-fectin. Seventy two hours after the transfection, CCK-8 was divided among the wells by allocating 10 μl of CCK-8 to each well, and the resulting mixture was cultured at 37° C. in an incubator for two hours.

[4] = mimic 10 nM, 72 hours after transfection, n=9
[5] = AGS, mimic 10 nM in combination with 10 uM 5-FU

Substance | Relative Sub G1 [1] | Relative Apoptotic cell ([2]; AGS) | effect on cell growth and apoptosis (summary statement) [2] | Relative Cell Growth [3, 4] | also measured
BART22-5p: EBV BART miRNA mimic, double stranded RNA; sense SEQ NO: 53, antisense SEQ NO: 54 (sense UGCUAGACCCUGGAGUUGAACC; antisense GGUUCAACUCCAGGGUCUAGCA; chemistry not given here) | 0.9654 | 1.197 | inhibit cell growth and promote apoptosis | 1.529 | Relative Apoptotic cell ([2]; AGS, listed as 22-5p): significantly higher
BART16-5p: EBV BART miRNA mimic, double stranded RNA; sense SEQ NO: 21, antisense SEQ NO: 22 (sense UUAGAUAGAGUGGGUGUGUGCUCU; antisense AGAGCACACACCCACUCUAUCUAA; chemistry not given here) | 1.182 | 1.312 | inhibit cell growth and promote apoptosis | 0.705 | Relative Sub G1 ([1]; listed as 16-5p): increased; Relative Apoptotic cell ([2]; AGS, listed as 16-5p): significantly higher; Relative Cell Growth ([3]; mimic 10 nM, 72 hours after transfection, n=9, listed as miR-BART16-5p): inhibited cell growth
BART19-3p: EBV BART miRNA mimic, double stranded RNA; sense SEQ NO: 71, antisense SEQ NO: 72 (sense UUUUGUUUGCUUGGGAAUGCU; antisense AGCAUUCCCAAGCAAACAAAA; chemistry not given here) | 1.244 | 0.9742 |  | 1.237 | Relative Sub G1 ([1]; listed as 19-3p): increased
BART7-5p: EBV BART miRNA mimic, double stranded RNA; sense SEQ NO: 41, antisense SEQ NO: 42 (sense CCUGGACCUUGACUAUGAAACA; antisense UGUUUCAUAGUCAAGGUCCAGG; chemistry not given here) | 0.9918 | 1.097 | inhibit cell growth and promote apoptosis | 1.539 | Relative Apoptotic cell ([2]; AGS, listed as 7-5p): significantly higher
BART10-3p: EBV BART miRNA mimic, double stranded RNA; sense SEQ NO: 59, antisense SEQ NO: 60 (sense UACAUAACCAUGGAGUUGGCUGU; antisense ACAGCCAACUCCAUGGUUAUGUA; chemistry not given here) | 0.8394 | 0.8971 |  | 1.591 | 
BART5-3p: EBV BART miRNA mimic, double stranded RNA; sense SEQ NO: 19, antisense SEQ NO: 20 (sense GUGGGCCGCUGUUCACCU; antisense AGGUGAACAGCGGCCCAC; chemistry not given here) | 0.9486 | 1.17 | inhibit cell growth and promote apoptosis | 0.9583 | 
BART2-5p: EBV BART miRNA mimic, double stranded RNA; sense SEQ NO: 85, antisense SEQ NO: 86 (sense UAUUUUCUGCAUUCGCCCUUGC; antisense GCAAGGGCGAAUGCAGAAAAUA; chemistry not given here) | 1.092 | 1.082 |  | 1.085 | 
BART7-3p: EBV BART miRNA mimic, double stranded RNA; sense SEQ NO: 43, antisense SEQ NO: 44 (sense CAUCAUAGUCCAGUGUCCAGGG; antisense CCCUGGACACUGGACUAUGAUG; chemistry not given here) | 0.9393 | 1.107 |  | 1.156 | 
BART9-3p: EBV BART miRNA mimic, double stranded RNA; sense SEQ NO: 51, antisense SEQ NO: 52 (sense UAACACUUCAUGGGUCCCGUAGU; antisense ACUACGGGACCCAUGAAGUGUUA; chemistry not given here) | 0.8669 | 0.7948 |  | 1.569 | 
BART5-5p: EBV BART miRNA mimic, double stranded RNA; sense SEQ NO: 17, antisense SEQ NO: 18 (sense CAAGGUGAAUAUAGCUGCCCAUCG; antisense CGAUGGGCAGCUAUAUUCACCUUG; chemistry not given here) | 2.111 | 1.325 | inhibit cell growth and promote apoptosis | 0.5231 | ratio of sub G1 after the 5-FU treatment ([1]; mimic 10 nM plus 10 uM 5-FU (Example 6)): greatly increased; Relative Sub G1 ([1]; listed as 5-5p): increased; ratio of early apoptotic cell [2, 5]: increased; ratio of late apoptotic cell [2, 5]: increased; degree of apoptosis, combination with 5-FU versus sum of single treatments ([2]; AGS, mimic 10 nM plus 10 uM 5-FU): synergetic effect; ratio of early apoptotic cell ([2]; AGS, mimic 10 nM treated alone): increased; ratio of late apoptotic cell ([2]; AGS, mimic 10 nM treated alone): increased; Relative Apoptotic cell ([2]; AGS, listed as 5-5p): significantly higher; cell growth depending on mimic concentration (onset of inhibition) ([3]; 1, 3, 10 and 30 nM, 72 hours after transfection): a tendency to inhibit cell growth beginning at 10 nM; Relative Cell Growth ([3]; mimic 10 nM, 72 hours after transfection, n=9, listed as miR-BART5-5p): inhibited cell growth; cell growth over time ([3]; mimic 10 nM, depending on treatment time): greatly decreased cell growth

From US9243247B2, “Composition for promoting apoptosis or inhibiting cell growth, comprising epstein-barr virus microrna” (Catholic University Industry Academic Cooperation Foundation, priority 2011, dated 2016)
